Where “and” joins values, the source holds several entries; their conditions need not be identical. Identical values can stand only once. Entries after “also recorded” stand apart in the source; their conditions may differ. Like-named read-outs stand apart in the source and are kept apart here.
Tests used:
human 5-HT1A receptor = biological target: T1, human 5-HT1A receptor (Homo sapiens, UniProt P08908); assay: 5-HT1A receptor binding ([3H]8-hydroxy-DPAT displacement, CHO-K1 membranes); details: for inhibition at 0.091 µM: single point displacement of [3H]-8-hydroxy-DPAT, 91 nM test compound, CHO-K1, ± S.E.M., n ≥ 3; for 5-HT1A receptor affinity/displacement in words: radioligand displacement assessment at 91 nM
T1 construct: expressed in transfected cells; host or cells: CHO-K1
T1 sequence (P08908 1-422): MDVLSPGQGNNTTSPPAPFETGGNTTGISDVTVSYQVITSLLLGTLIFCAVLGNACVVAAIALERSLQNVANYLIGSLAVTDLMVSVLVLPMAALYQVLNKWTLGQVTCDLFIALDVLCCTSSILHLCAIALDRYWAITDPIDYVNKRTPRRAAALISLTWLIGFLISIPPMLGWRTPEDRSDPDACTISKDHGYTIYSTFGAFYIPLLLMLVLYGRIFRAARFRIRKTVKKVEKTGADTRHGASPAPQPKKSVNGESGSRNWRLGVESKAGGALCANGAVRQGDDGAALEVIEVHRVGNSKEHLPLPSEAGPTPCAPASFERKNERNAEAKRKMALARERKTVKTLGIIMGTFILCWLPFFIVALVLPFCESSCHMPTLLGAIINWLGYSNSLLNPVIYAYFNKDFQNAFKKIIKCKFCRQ
Method: Because the 5-HT1A receptor is a commonly observed off-site binding site for benzamide N-phenylpiperazine ligands, compounds were simultaneously screened for binding of our compounds at the human 5-HT1A receptor expressed in CHO-K1 cells, using the radioligand [^3H]-8-hydroxy-DPAT (8-OH-DPAT) (Table 2). Based upon the analysis of the displacement assay shown in Table 2, the orthosteric compounds 3c–f appeared to bind with low affinity at human 5-HT1A receptors.
10 μg of membranes from CHO-K1 cells expressing the human 5-HT1A receptor were suspended in 50 mM Tris-HCl, 10 mM MgSO4, 0.5 mM EDTA, and 0.1% (w/v) ascorbic acid, pH 7.4 and test ligands (91 nM for single point radioligand displacement assay and 1 nM to 1 μM for full competition assay) were incubated with 0.25 nM [^3H]8-hydroxy-DPAT (PerkinElmer, Boston, MA, USA) for 60 min at room temperature. The nonspecific binding was determined using 10 μM metergoline (Sigma, St. Louis, MO, USA). After incubation, the bound ligands were filtered using an M-24 Brandel filtration system (Brandel, Gaithersburg, MD, USA), collected on glass fiber papers (Whatman grade 934-AH, GE Healthcare Bio-Sciences, Pittsburgh, PA, USA), and the radioactivity was quantitated using a MicroBeta2 Microplate scintillation counter 2450 (PerkinElmer, Boston, MA, USA).

D3 dopamine receptor [1] = biological target: T2, D3 dopamine receptor (Homo sapiens, UniProt P35462); assay: β-arrestin binding assay (DiscoverX PathHunter, DRD3-U2OS cells); format: cell-based; parameters: host or cells: U2OS (PathHunter eXpress DRD3-U2OS); details: human D3, test compound at 10x Ki, normalized to quinpirole
T2 sequence (P35462 whole entry): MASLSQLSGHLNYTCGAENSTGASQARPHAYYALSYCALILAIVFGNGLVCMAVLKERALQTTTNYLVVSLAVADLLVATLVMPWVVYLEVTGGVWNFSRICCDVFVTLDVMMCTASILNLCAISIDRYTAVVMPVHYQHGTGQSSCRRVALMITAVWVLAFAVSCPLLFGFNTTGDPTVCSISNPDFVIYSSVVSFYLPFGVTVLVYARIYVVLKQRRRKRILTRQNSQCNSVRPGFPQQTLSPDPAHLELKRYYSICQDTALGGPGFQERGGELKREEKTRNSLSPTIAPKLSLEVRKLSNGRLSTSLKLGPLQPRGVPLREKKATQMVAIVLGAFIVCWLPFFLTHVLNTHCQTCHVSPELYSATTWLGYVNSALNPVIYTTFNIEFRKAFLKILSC
Method: (§1) Quinpirole was used as a reference prototypic full agonist and haloperidol was used as a reference prototypic antagonist.
The β-arrestin binding assay was performed using a DiscoverX Pathhunter® kit according to the manufacturer’s instructions. PathHunter® eXpress β-Arrestin GPCR cells are engineered to co-express the ProLink™ (PK) tagged GPCR and the Enzyme Acceptor (EA) tagged β-Arrestin. Activation of the GPCR-PK induces β-Arrestin-EA recruitment, forcing complementation of the two β-galactosidase enzyme fragments (EA and PK). The resulting functional enzyme hydrolyzes substrate to generate a chemiluminescent signal. DRD3-U2OS cells were seeded according to kit instructions into white plastic 96-well plates (provided with the kit) 48 h prior to the assay in a volume of 100 μL/well using the Cell Plating Reagent (CPR) provided. Vehicle or test drug, diluted in CPR, was added to the designated wells and incubated for 90 min at 37 °C. Working detection solution (a component provided with the kit) was added to the wells and incubated for 1 h in the dark at room temperature. As discussed for the cyclase assay, an Enspire Alpha 2390 Multilabel Reader/Luminometer was used to detect the luminescent signal with haloperidol and quinpirole used as reference antagonist and full agonist, respectively.
(§2) Figure 3 Comparison of the Efficacy of Phenylthiophene Analogs for Adenylyl Cyclase Inhibition and β-Arrestin Binding at Human D3 Dopamine Receptors. […] Values were normalized to reference full agonist quinpirole (10,000 nM).

D3 dopamine receptor [2] = biological target: T2, D3 dopamine receptor; assay: Forskolin-dependent adenylyl cyclase inhibition assay (cAMP-Glo, HEK cells); format: cell-based; parameters: expressed in transfected cells; host or cells: HEK293; details: human D3, test compound at 10x Ki, normalized to quinpirole 10,000 nM
Method: as §1
The forskolin-dependent adenylyl cyclase inhibition assay was performed using a cAMP-Glo Assay kit (Promega). For this assay cAMP stimulates protein kinase A (PKA) activity, which leads to a decrease in ATP levels and a decrease in the luciferase-coupled production of light. This is a 96 well plate assay using HEK cells stably transfected to express the human D3 dopamine receptor (10,000 cells/well/0.1 mL complete media). After removing media and rinsing with phosphate buffered saline, cells were incubated with 20 μL of forskolin (6000 nM) and test compound or vehicle. […] After cells, test compound (or vehicle) and forskolin (or vehicle) were incubated for 15 min, cells were lysed using 20 μL lysis buffer (provided with the kit) and mixed for 15 min at room temperature. A cAMP Detection Solution (40 μL) was added to each well, gently mixed for 60 s and incubated at room temperature for 20 min. The Kinase-Glo Solution was added (40 μL) to terminate the PKA reaction. The reaction mixture was gently mixed for 60 s and then incubated at room temperature for 10 min. The remaining ATP was detected via a luciferase reaction. The plates were read using an Enspire Alpha 2390 Multilabel Reader/Luminometer. Haloperidol (200 nM) and quinpirole (10,000 nM) was used as a prototypic reference antagonist and full agonist, respectively.
as §2

D3 dopamine receptor [3] = biological target: T2, D3 dopamine receptor; details: for D2:D3 Selectivity: ratio of D2 and D3 Ki values (Table 1)
Method: Competitive radioligand binding techniques were used to determine the Ki values of ligands at human D2 and D3 dopamine receptors expressed in stably transfected HEK cells (Table 1).
The final radioligand concentration was approximately equal to the Kd value for the binding of the radioligand. […] For each competition curve, triplicates were performed using two concentrations of inhibitor per decade over five orders of magnitude.
The competition curves were modeled for a single binding site using Bs = Bo − ((Bo + L)/(IC50 + L)) where Bs is the amount of ligand bound to receptor and Bo is the amount of ligand bound to receptor in the absence of competitive inhibitor. L is the concentration of the competitive inhibitor. […] The values for Bs and Bo were constrained using experimentally derived values. The IC50 values were converted to equilibrium dissociation constants (Ki) [50, 51]. Mean Ki values ± S.E.M. are reported for at least three independent experiments.

[4] = biological target: human D3 dopamine receptor; details: read-out: Ki D3 (hD3), previously published; Figure 1 and text; cited from earlier work
D3 dopamine receptor [5] = biological target: T2, D3 dopamine receptor; parameters: method as in PMID 15582454; details: cited from earlier work

SMILES: O=C(NCCCCN1CCN(c2ccc(C(F)(F)F)cc2F)CC1)c1ccc(-c2cscn2)cc1 [Compound 7e]
- inhibition at 0.091 µM (human 5-HT1A receptor): 7.6 ± 6.5%
- efficacy in β-arrestin binding assay (D3 dopamine receptor [1]): antagonists
- efficacy in adenylyl cyclase inhibition assay (D3 dopamine receptor [2]): antagonists
- Ki (D3 dopamine receptor [3]): 30.9 ± 2.6 nM

SMILES: O=C(NCCCCN1CCN(c2ccccc2F)CC1)c1ccc(-c2cscn2)cc1 [Compound 7a]
- Ki (human 5-HT1A receptor; full competition curve, [3H]-8-hydroxy-DPAT, at least three experiments, read-out: Ki at 5-HT1A receptor): 14.3 ± 7.1 nM
- 5-HT1A receptor affinity/displacement in words (human 5-HT1A receptor): substantial affinity; also recorded: increased affinity
- inhibition at 0.091 µM (human 5-HT1A receptor): 65.8 ± 5%
- Ki (D3 dopamine receptor [3]): 2.5 ± 0.22 nM
- D2:D3 Selectivity (D3 dopamine receptor [3]): 190

SMILES: O=C(NCCCCN1CCN(c2ccc(F)cc2OCCF)CC1)c1ccc(-c2ccsc2)cc1 [Compound 6f]
- inhibition at 0.091 µM (human 5-HT1A receptor): 16.9 ± 24.4%
- Ki (D3 dopamine receptor [3]): 6.1 ± 0.2 nM
- D2:D3 Selectivity (D3 dopamine receptor [3]): 67.4

SMILES: CCCCN1CCN(c2ccccc2F)CC1 [Compound 3a]
- Ki (human 5-HT1A receptor): 67.8 ± 4.6 nM
- 5-HT1A receptor affinity/displacement in words (human 5-HT1A receptor): partially displace; also recorded: moderate affinity
- inhibition at 0.091 µM (human 5-HT1A receptor): 20.3 ± 16.2%
- Ki (D3 dopamine receptor [3]): 96.2 ± 16.9 nM
- D2:D3 Selectivity (D3 dopamine receptor [3]): 4.0

SMILES: O=C(NCCCCN1CCN(c2ccc(F)cc2)CC1)c1ccc(-c2cscn2)cc1 [Compound 7c]
- inhibition at 0.091 µM (human 5-HT1A receptor): 12.2 ± 3.1%
- Ki (D3 dopamine receptor [3]): 28.6 ± 2.1 nM
- D2:D3 Selectivity (D3 dopamine receptor [3]): 140

SMILES: CCCCN1CCN(c2cc(C#N)ccc2F)CC1 [Compound 3d]
- inhibition at 0.091 µM (human 5-HT1A receptor): -18 ± 11.1%
- Ki (D3 dopamine receptor [3]): 726 ± 101 nM
- D2:D3 Selectivity (D3 dopamine receptor [3]): 7.5

SMILES: CCCCN1CCN(c2ccc(C(F)(F)F)cc2F)CC1 [Compound 3e]
- inhibition at 0.091 µM (human 5-HT1A receptor): -11.6 ± 15.4%
- Ki (D3 dopamine receptor [3]): 1410 ± 59.1 nM
- D2:D3 Selectivity (D3 dopamine receptor [3]): 5.3

SMILES: N#Cc1ccc(F)c(N2CCN(CCCCNC(=O)c3ccc(-c4ccsc4)cc3)CC2)c1 [Compound 6d]
- inhibition at 0.091 µM (human 5-HT1A receptor): 2.5 ± 3.5%
- efficacy in β-arrestin binding assay (D3 dopamine receptor [1]): antagonists
- efficacy in adenylyl cyclase inhibition assay (D3 dopamine receptor [2]): antagonists
- Ki (D3 dopamine receptor [3]): 15.5 ± 1.3 nM
- D2:D3 Selectivity (D3 dopamine receptor [3]): 290

SMILES: N#Cc1ccc(F)c(N2CCN(CCCCNC(=O)c3ccc(-c4cscn4)cc3)CC2)c1 [Compound 7d]
- inhibition at 0.091 µM (human 5-HT1A receptor): -5.6 ± 18.3%
- Ki (D3 dopamine receptor [3]): 28.1 ± 0.8 nM
- D2:D3 Selectivity (D3 dopamine receptor [3]): 274

SMILES: O=C(NCCCCN1CCN(c2cccc(F)c2)CC1)c1ccc(-c2cscn2)cc1 [Compound 7b]
- 5-HT1A receptor affinity/displacement in words (human 5-HT1A receptor): substantial affinity
- inhibition at 0.091 µM (human 5-HT1A receptor): 74.1 ± 5.3%
- Ki (D3 dopamine receptor [3]): 24 ± 5.5 nM
- D2:D3 Selectivity (D3 dopamine receptor [3]): 165

SMILES: CCCCN1CCN(c2ccc(F)cc2)CC1 [Compound 3c]
- inhibition at 0.091 µM (human 5-HT1A receptor): 5.1 ± 11.2%
- Ki (D3 dopamine receptor [3]): 1180 ± 240 nM
- D2:D3 Selectivity (D3 dopamine receptor [3]): 2.6

SMILES: O=C(NCCCCN1CCN(c2cccc(F)c2)CC1)c1ccc(-c2ccsc2)cc1 [Compound 6b]
- 5-HT1A receptor affinity/displacement in words (human 5-HT1A receptor): substantial affinity
- inhibition at 0.091 µM (human 5-HT1A receptor): 74.7 ± 1.9%
- efficacy in β-arrestin binding assay (D3 dopamine receptor [1]): weak partial agonists
- efficacy in adenylyl cyclase inhibition assay (D3 dopamine receptor [2]): weak partial agonists
- Ki (D3 dopamine receptor [3]): 7.9 ± 1.4 nM
- D2:D3 Selectivity (D3 dopamine receptor [3]): 296

SMILES: O=C(NCCCCN1CCN(c2cccc(Cl)c2Cl)CC1)c1ccc(-c2ccccn2)cc1 [PG 01037]
- Ki [4]: 0.7 nM

SMILES: O=C(NCCCCN1CCN(c2ccc(F)cc2)CC1)c1ccc(-c2ccsc2)cc1 [Compound 6c]
- inhibition at 0.091 µM (human 5-HT1A receptor): -7.7 ± 23.5%
- efficacy in β-arrestin binding assay (D3 dopamine receptor [1]): very weak partial agonist/antagonist
- efficacy in adenylyl cyclase inhibition assay (D3 dopamine receptor [2]): weak partial agonist
- Ki (D3 dopamine receptor [3]): 12.4 ± 1.6 nM
- D2:D3 Selectivity (D3 dopamine receptor [3]): 579

SMILES: CCCCN1CCN(c2ccc(F)cc2OCCF)CC1 [Compound 3f]
- inhibition at 0.091 µM (human 5-HT1A receptor): 1.7 ± 21.7%
- Ki (D3 dopamine receptor [3]): 351 ± 42.1 nM
- D2:D3 Selectivity (D3 dopamine receptor [3]): 1.0

SMILES: O=C(NCCCCN1CCN(c2ccccc2OCCF)CC1)c1ccc(-c2ccsc2)cc1 [LS-3-134]
- % of maximum efficacy, adenylyl cyclase inhibition assay (D3 dopamine receptor [5]): 35% and 34.4 ± 1.7%

SMILES: O=C(NCCCCN1CCN(c2ccc(F)cc2OCCF)CC1)c1ccc(-c2cscn2)cc1 [Compound 7f]
- 5-HT1A receptor affinity/displacement in words (human 5-HT1A receptor): substantial affinity
- inhibition at 0.091 µM (human 5-HT1A receptor): 37.1 ± 24.4%
- Ki (D3 dopamine receptor [3]): 4.8 ± 0.28 nM
- D2:D3 Selectivity (D3 dopamine receptor [3]): 72.9

SMILES: O=C(NCCCCN1CCN(c2cccc(Cl)c2Cl)CC1)c1ccc2c(c1)Cc1ccccc1-2 [NGB 2904]
- Ki [4]: 2 nM

SMILES: CCCCN1CCN(c2cccc(F)c2)CC1 [Compound 3b]
- 5-HT1A receptor affinity/displacement in words (human 5-HT1A receptor): partially displace
- inhibition at 0.091 µM (human 5-HT1A receptor): 36.1 ± 2.1%
- Ki (D3 dopamine receptor [3]): 1000 ± 118 nM
- D2:D3 Selectivity (D3 dopamine receptor [3]): 2.5

SMILES: O=C(NCCCCN1CCN(c2ccc(C(F)(F)F)cc2F)CC1)c1ccc(-c2ccsc2)cc1 [Compound 6e]
- inhibition at 0.091 µM (human 5-HT1A receptor): 6.1 ± 6.8%
- Ki (D3 dopamine receptor [3]): 43.3 ± 9.2 nM
- D2:D3 Selectivity (D3 dopamine receptor [3]): >1800

Reference: publication PMC8198181, “Evaluation of Substituted N-Phenylpiperazine Analogs as D3 vs. D2 Dopamine Receptor Subtype Selective Ligands” (Molecules, 2021)
